Measurements as given in patent publication US7202280B2, “Methods for the treatment and prevention of pancreatitis and for induction of liver regeneration” (priority 2002, dated 2007).

Experiments:
[1] = test system: syngenic and transgenic rats; experiment: Liver regeneration after partial hepatectomy (liver weight, PCNA labeling index, thymidine incorporation); format: in vivo, rat; conditions: for stimulation of DNA synthesis (thymidine incorporation): 25 mg/kg 20 h and 4 h before; for PCNA-positive hepatocytes: repeated experiment
Method: FIGS. 5a–5b. Liver weight (FIG. 5a) and PCNA labeling index (FIG. 5b) in syngenic and transgenic rats after partial hepatectomy and methylspermidine. Three to five animals in each group. *p<0.05, ***p<0.001 as compared with preoperative values. Md-spd, methylspermidine.
FIG. 10. Effect of polyamine analogues on thymidine incorporation in 24-h regenerating livers of SSAT transgenic rats. […] Ten μCi of tritiated thymidine was given 30 min before sacrifice. Three to four animals in each group.
The production of transgenic Wistar rats (UKUR30) and mice (UKU181) harboring metallothionein-SSAT fusion gene (Suppola, S., Pietilä, M., Parkkinen, J. J., Korhonen, V. P., Alhonen, L., Halmekytö, M., Porter, C. W., and Jänne, J. (1999) Biochem. J. 338, 311–316) has been described earlier (Alhonen, L., Parkkinen, J. J., Keinänen, T., Sinervirta, R., Herzig, K. H., and Jänne, J. (2000) Proc. Natl. Acad. Sci. U.S.A. 97, 8290–8295; Lukkarinen, J., Gröhn, O., Sinervirta, R., Järvinen, A., Kauppinen, R. A., Jänne, J., and Alhonen, L. (1997) Stroke 28, 639–645). Partial hepatectomy was carried out according to the original method of Higgins and Anderson (Higgins, G. H., and Anderson, R. M. (1931) Arch. Pathol. 12, 186–202). Treatments before partial hepatectomy and the determination of DNA synthesis were carried out as in (Räsänen, T. L., Alhonen, L., Sinervirta, R., Keinänen, T., Herzig, K. H., Suppola, S., Khomutov, A. R., Vepsäläinen, J., and Jänne, J. (2002) J. Biol. Chem. 277, 39867–39872). […] The animals were sacrificed 24 h after the second MDL72527 injection and liver pieces were frozen in liquid nitrogen, homogenized in buffer (25 mM Tris-HCl pH 7.4, 0.1 mM EDTA, 1 mM DTT). An aliquot of the homogenates was used for the polyamine assays. The homogenates were centrifuged (at 13 000×g, for 30 min, at 4° C.) and the supernatants were used for the enzyme activity assays. The Institutional Animal Care and Use Committee of the University of Kuopio and by the Provincial Government approved animal experiments.
PCNA was detected from formalin-fixed paraffin-embedded tissue section as described in detail earlier (Alhonen, L., Räsänen, T. L., Sinervirta, R., Parkkinen, J. J., Korhonen, V. P., Pietilä, M., and Jänne, J. (2002) Biochem. J. 362, 149–15).
PCNA was used as an indicator of proliferative activity during liver regeneration. Immunohistochemical detection of PCNA is a convenient and commonly used method to grade proliferative activity in various tissues. PCNA expression is closely correlated with the S-phase of the cell cycle (17). FIG. 5b depicts PCNA labeling index before partial hepatectomy and at 24 h postoperatively in syngenic and transgenic rats without or with methylspermidine treatment. In resting liver, only about 1% of the hepatocytes were PCNA-positive. In syngenic animals, the number of PCNA-positive cells increased sharply to over 30% at 24 h after the operation whereas in transgenic animals the number of positive cells remained at the low preoperative level at this time point (FIG. 5b). […] The experiment was repeated with other groups of syngenic and transgenic rats. In this experiment, PCNA-positive hepatocytes accounted for 0.5±0.1% in resting syngenic liver. The number of positive cells rose to 10.7±3.5% at 24 h postoperatively without the analogue (p<0.001) and to 9.8±1.5% with the analogue (p<0.001). The corresponding figures for the transgenic animals were 0.20±0.0 before the operation, 0.42±0.24% at 24 h postoperatively without methylspermidine and 25.9±4.9% with methylspermidine (p<0.001). It thus appears that the analogue completely reversed the proliferative block in transgenic livers.
Liver regeneration could be restored by a prior administration of α-methylspermidine (Räsänen, T. L., Alhonen, L., Sinervirta, R., Keinänen, T., Herzig, K. H., Suppola, S., Khomutov, A. R., Vepsäläinen, J., and Jänne, J. (2002) J. Biol. Chem. 277, 39867–39872). […]

[2] = test system: MT-SSAT transgenic rats; experiment: Zinc-induced pancreatitis, prevention by pretreatment with analogue (plasma α-amylase, pancreatic histology); format: in vivo, rat; parameters: key to Histological scoring (0 to 4): Edema / Histological scoring (0 to 4): Inflammation: 0 (absent); 1 (minimal); 4 (maximal); conditions: for Histological scoring (0 to 4): Edema / Histological scoring (0 to 4): Inflammation / Histological scoring (0 to 4): Necrosis / Histological scoring (0 to 4): Vacuolization: Zn; for Plasma α-amylase activity / acinar necrosis (pancreatic histology): transgenic rats; for Plasma α-amylase activity: zinc 10 mg/kg; for acinar necrosis (pancreatic histology): zinc
Method: FIG. 2. Plasma α-amylase activity in syngenic and transgenic rats after zinc and methylspermidine. The animals were treated as in FIG. 1. Six to eight animals in each group. *p<0.05 as compared with zinc-treated animals. ***p<0.001 as compared with untreated animals. Me-spd, methylspermidine.
FIGS. 3a–3d. Histology of pancreas of transgenic rats after zinc and methylspermidine. The animals were treated as in FIGS. 1a–1d. Magnification ×125. […] The animals received zinc (10 mg/kg) 24 h before sacrifice without (FIG. 3b) or with methylspermidine (50 mg/kg) either as single dose 4 h before zinc (FIG. 3c) or as two doses 20 h and 4 h before zinc (FIG. 3d).
Formalin-fixed pancreatic specimens were embedded in paraffin, cut into 5-μm-thick slices, and stained with hematoxylin/eosin. The stained sections were coded and scored by the participating gastroenterologist (K.-H. H.) according to the method of Niederau et al. (Niederau, C., Liddle, R. A., Ferrell, L. D., and Grendell, J. H. (1986) J. Clin. Invest. 78, 1056–1063).
FIG. 3 depicts pancreatic histology in transgenic animals after saline (FIG. 3a), after zinc alone (FIG. 3b), after zinc and single dose of the analogue (FIG. 3c) and after zinc and two doses of the analogue (FIG. 3d). The acinar structure of untreated transgenic animal is entirely normal (FIG. 3a) whereas zinc induced distinct pancreatitis with more than 50% of the acinar cells undergoing necrosis (FIG. 3b). […] Table A summarizes the histological scoring of pancreatic specimens from all animals. […] A single dose of the analogue administered prior to zinc reduced the extent of necrosis while after two repeated doses of the compound very little, if any, necrosis was present (Table A).
MT-SSAT (UKUR30) transgenic rats received zinc (10 mg/kg i.p.) 24 h before sacrifice either alone or in the combination with Me2SPM (25 mg/kg i.p.) administered twice 20 h and 4 h before zinc. There were three animals in each group. Plasma amylase activity was measured as a marker of pancreatitis.

[3] = SSAT transgenic rats, 24 h after partial hepatectomy
[4] = MT-SSAT transgenic rats, zinc 10 mg/kg i.p. 24 h, Me2SPM 25 mg/kg i.p. 20 h and 4 h before zinc

CC(N)CCNCCCCNCCC(C)N (stereo not drawn) [bis-α-methylspermine, 1,12-dimethylspermine]
stimulation of DNA synthesis (thymidine incorporation) [1, 3]: about 10 fold | Pancreatic histology [2, 4]: modest edema | plasma amylase [2, 4]: 2744 ± 837 | prevention of pancreatitis ([2]; rats with depleted polyamine pools, 25 mg/kg 2 injections i.p. 20/4 hours prior to zinc): prevents pancreatitis

CC(N)CCNCCCCN (stereo not drawn) [α-methylspermidine, 1-methylspermidine]
thymidine incorporation (DNA synthesis) ([1]; SSAT transgenic rats, 24 h after partial hepatectomy, 5 mg/kg 20 h and 4 h before): only insignificantly increased DNA synthesis | stimulation of DNA synthesis (thymidine incorporation) [1, 3]: about 10 fold | liver weight gain ([1]; non-transgenic rats, 24 h after partial hepatectomy): no effect on the weight gain | PCNA-positive hepatocytes ([1]; syngenic rats, 24 h postoperatively with the analogue): 9.8±1.5% | PCNA-positive hepatocytes ([1]; transgenic rats, 24 h postoperatively with methylspermidine): 25.9±4.9% | PCNA labeling index ([1]; syngenic livers, 24 h after partial hepatectomy): did not change PCNA labeling index | PCNA-positive cells ([1]; transgenic liver, 24 h after partial hepatectomy, from about 1%): more than 40% | liver weight ([1]; transgenic rats, 24 h after partial hepatectomy): significantly increased the organ weight | Histological scoring (0 to 4): Edema ([2]; Sg rats, 1 × Me-spd 50 mg/kg): 1 | Histological scoring (0 to 4): Inflammation ([2]; Sg rats, 1 × Me-spd 50 mg/kg): 1 | Histological scoring (0 to 4): Necrosis ([2]; Sg rats, 1 × Me-spd 50 mg/kg): 0 (0, 0–5%) | Histological scoring (0 to 4): Vacuolization ([2]; Sg rats, 1 × Me-spd 50 mg/kg): 0 (0, 0–5%) | Histological scoring (0 to 4): Edema ([2]; Sg rats, 2 × Me-spd 50 mg/kg): 1 | Histological scoring (0 to 4): Inflammation ([2]; Sg rats, 2 × Me-spd 50 mg/kg): 0 | Histological scoring (0 to 4): Necrosis ([2]; Sg rats, 2 × Me-spd 50 mg/kg): 0 (0, 0–5%) | Histological scoring (0 to 4): Vacuolization ([2]; Sg rats, 2 × Me-spd 50 mg/kg): 0 (0, 0–5%) | Histological scoring (0 to 4): Edema ([2]; Tg rats, 1 × Me-spd 50 mg/kg): 1 | Histological scoring (0 to 4): Inflammation ([2]; Tg rats, 1 × Me-spd 50 mg/kg): 1 | Histological scoring (0 to 4): Necrosis ([2]; Tg rats, 1 × Me-spd 50 mg/kg): 2 (2, 15–35%) | Histological scoring (0 to 4): Vacuolization ([2]; Tg rats, 1 × Me-spd 50 mg/kg): 0 (0, 0–5%) | Histological scoring (0 to 4): Edema ([2]; Tg rats, 2 × Me-spd 50 mg/kg): 1 | Histological scoring (0 to 4): Inflammation ([2]; Tg rats, 2 × Me-spd 50 mg/kg): 1 | Histological scoring (0 to 4): Necrosis ([2]; Tg rats, 2 × Me-spd 50 mg/kg): 0–1 | Histological scoring (0 to 4): Vacuolization ([2]; Tg rats, 2 × Me-spd 50 mg/kg): 1 (1, 5–15%) | Plasma α-amylase activity ([2]; single dose 50 mg/kg 4 h before zinc): decreased after a single dose | Plasma α-amylase activity ([2]; two doses 50 mg/kg 20 h and 4 h before zinc): fully normalized after two repeated doses | acinar necrosis (pancreatic histology) ([2]; single dose before zinc): very little necrosis was present | acinar necrosis (pancreatic histology) ([2]; two doses before zinc): none after two doses
